Test results taken from patent publication US12023308B2, “Agents for reversing toxic proteinopathies” (THE BROAD INSTITUTE, INC., priority 2019, dated 2024).
pEC50: −log10 of the molar value. “Also recorded” adds a separate entry of the source.

Key:
[1] = test system: MUC1-fs; test: MUC1-fs immunofluorescence high-content imaging assay in P cells; type: cell-based, human; settings: read-out: EC50 for removal of MUC1-fs (IF); P cells treated 48 hours
Experimental: Cells grown on CellCarrier-96 or -384 well Ultra microplates (PerkinElmer) were fixed 10 min in PBS containing 4% PFA (Electron Microscopy Sciences), permeabilized 15 min in 0.5% Triton X100 (X100-100ML, Sigma-Aldrich), blocked for 1 hr in blocking reagent (100 mM Tris HCL pH8; 150 mM NaCL; 5 g/L Blocking Reagent [11096176001, Roche]) and treated for 1 hr with primary antibodies diluted in blocking reagent (1:500, monoclonal Fab-A-VSH anti-fsMUC1, AbD22655.2, Bio-Rad; 1:2000, monoclonal Mouse anti-MUC1 (CD227), 60137, Stemcell Technologies; 1:200, polyclonal, Mouse anti-GM130, ab169276, Abcam; 1:100, polyclonal, Rabbit anti-TMED9, 216201-AP, Proteintech; 1:800, polyclonal, Rabbit anti-SEC31A, 17913-1-AP, Proteintech; 1:400, monoclonal, Rabbit anti-EEA1 (C45B10), 3288S, Cell signaling technology; 1:100, polyclonal, Rabbit anti-ERGIC-53, E1031, Sigma-Aldrich; 1:400, monoclonal, Mouse anti-LAMP1 (D401S), 15665, Cell signaling technology; 1:1000, polyclonal, Rabbit anti-Calnexin, ab22595, Abcam; 1:2000, monoclonal, Rabbit anti-GM130 (D6B1) XP, 12480, Cell signaling technology; 1:200, monoclonal, Rabbit anti TNG46, ab50595, Abcam; 1:100, monoclonal, Rabbit anti-Rab7 (D95F2) XP, 9367, Cell signaling technology; 1:100, monoclonal, Rabbit anti-Rab11 (D4F5) XP, 5589, Cell signaling technology). Fixed, stained cells were washed three times in PBS and incubated for 1 hr with secondary antibodies in blocking solution (1:500, Alexa Fluor 488® Goat anti-Mouse IgG, A-11029, Thermo Fisher Scientific®; 1:500, Alexa Fluor 647® F(ab′)2-Goat anti-Rabbit IgG, A21246, Thermo Fisher Scientific®; 1:2000, Hoechst 33342, H3570, Thermo Fisher Scientific®), then washed three times in PBS and imaged.
Cell nuclei were first identified using Hoechst staining, and cell number was calculated. Cytoplasmic regions were then detected around each nucleus based on combined channels. The cells from the edge of the field were eliminated from the analysis. For the quantification of protein abundance, the total signal intensity value for each antibody was calculated separately in the cell cytoplasm and the average signal per cell was calculated for each well.
P cells were seeded 24 hr prior to compound treatment at a density of 12,000 cells/well in 384 well Cell Carrier Ultra plates (6057308, Perkin Elmer), pre-coated with 0.25 mg/mL Synthemax II SC Substrate (3535, Corning). Compounds of the repurposing library set (Corsello et al., 2017) were used at 5 doses (35, 3.5, 0.35, 0.035 and 0.0035 μM) for the primary screen and 10 doses (16, 5.6, 1.8, 0.6, 0.21, 0.07, 0.02, 0.008, 0.002 and 0.0008 μM) for the following screens. The compounds, in two replicates, were transferred from compound source plates to the cell plates using the HighRes Pin Tool. […] After 48 hr incubation, cells were fixed for 20 min in 4% PFA (Electron Microscopy Sciences) in PBS, washed twice, then permeabilized (10 min) with 0.5% Triton-X100 (X100-100ML, Sigma-Aldrich) in PBS and washed once more. Cells were blocked for 10 min at RT with Blocking solution (100 mM Tris HCL pH8; 150 mM NaCL; 5 g/L Blocking Reagent [11096176001, Roche]), then incubated 90 min at RT with one of the following primary antibodies in Roche Blocking solution: 1:500, monoclonal Fab-A-VSH anti-MUC1-fs, AbD22655.2, Bio-Rad; 1:2000, monoclonal mouse anti-MUC1 (214D4), 05-652-KC, Millipore; 1:1000, monoclonal, Rabbit anti-GM130 (D6B1) XP, 12480, Cell signaling technology. […]

[2] = Munk et al., 1996; cited from earlier work
[3] = test system: MUC1-fs; test: MUC1-fs IF in MKD patient iPSC-derived kidney organoids; type: cell-based, human; settings: 10 μM, 72 hours, organoids P1-P3
Experimental: (§1) Kidney organoids were immersion-fixed for 15 min in 4% PFA at 4° C. and subsequently frozen in OCT using dry ice and 100% ethanol. Six […] cryostat sections (CM1950, Leica) were thaw-mounted on microscope slides (Fisherbrand™ Superfrost™ Plus, Fisher Scientific) and kept in the cryostat (at −26° C.) for the duration of the sectioning process. Prior to immunostaining, organoid sections were rinsed in PBS for 5 min, incubated for 20 min at room temperature (RT) in PBS blocking solution containing 5% normal donkey serum (530-100ML, EMD Millipore) and 1.5% Tween® 20 (P1379, Sigma-Aldrich), then incubated overnight at 4° C. with primary antibodies diluted in the same blocking solution (1:500, monoclonal Armenian hamster anti-MUC1, Ab80952, Abcam; 1:500, monoclonal Fab-A-VSH anti-fsMUC1, AbD22655.4, Bio-Rad; 1:300 monoclonal Rat anti-E Cadherin [DECMA-1], ab11512, Abcam; 1:500 polyclonal Rabbit anti-Laminin, L9393-100UL, Sigma-Aldrich; 1:500 Na/K-ATPase, ab76020, Abcam; 1:300 Fluorescein labeled Lotus Tetragonolobus Lectin (LTL), FL-1321, Vector laboratories; 1:100, polyclonal, Rabbit anti-TMED9, 21620-1-AP, Proteintech). […]
For a sequence analysis illustration, refer to FIG. 12B. […] MUC1-wt signal intensities were calculated within each WT reference region and averaged for entire section. […]

[4] = test system: P cells; test: P cell viability upon THP treatment (live imaging, rescue); type: cell-based, human; settings: P cells
Experimental: To study apoptosis and cell death in N and P cells, 384 well Cell Carrier Ultra plates (6057308, Perkin Elmer), pre-coated with 0.25 mg/mL Synthemax II SC Substrate (3535, Corning) were used. […] CellEvent Caspase-3/7 Green Detection Reagent (C10423, Thermo Fisher Scientific®) and DRAQ7 (DR71000, Biostatus) were used at 1:5000 to monitor apoptosis and cell death respectively. Cells were imaged daily during 4 days to monitor viability and image analysis was performed as described below. For rescue experiments, P cells were plated on 96 well Cell Carrier Ultra microplates (6055302, Perkin Elmer) at 30,000 cells/well and cultured for 24 hr. BRD-4780 (5 μM) was applied as a pretreatment for 48 hr prior to thapsigargin exposure and throughout the experiment. Thapsigargin was applied at increasing doses and the plates were imaged daily thereafter.
For the measurement of P cell rescue from THP-induced cell death by BRD-4780 (FIGS. 3I and 3J), no dyes were added to avoid any influence on cell growth. Digital phase contrast images were used for cell identification and count, and autofluorescence in the far-red channel was used for detection of dead cells. Cells with no autofluorescence were identified and calculated as live cell.
P cells were seeded 12 hr prior to profiling compound treatment at a density of 12,000 cells/well in 384 well Cell Carrier Ultra plates (6057308, Perkin Elmer), pre-coated with 0.25 mg/mL Synthemax II SC Substrate (3535, Corning). After 24 hr, CellEvent Caspase-3/7 Green Detection Reagent (C10423, Thermo Fisher Scientific®) and DRAQ7 (DR71000, Biostatus) were added at 1:5000 final dilution in the presence or absence of thapsigargin (100 nM). Cells were imaged daily during 7 days to monitor viability. Image acquisition and analysis was done as described above and viability was assessed as fraction of live cells at day 5 of thapsigargin treatment, and at the day 6 for DMSO.

[5] = molecular target: T1, TMED9 (Homo sapiens, UniProt Q9BVK6); test: Cellular thermal shift assay (CETSA) for TMED9 in P cells; type: binding; settings: 5 μM, 1 hour
T1 construct: TMED9 abundance in P cells at escalating temperatures (as indicated) with or without treatment with BRD-4780; endogenous in cells; host or cells: P cells (intact cells treated, then heated and lysed)
T1 sequence (Q9BVK6 38-235): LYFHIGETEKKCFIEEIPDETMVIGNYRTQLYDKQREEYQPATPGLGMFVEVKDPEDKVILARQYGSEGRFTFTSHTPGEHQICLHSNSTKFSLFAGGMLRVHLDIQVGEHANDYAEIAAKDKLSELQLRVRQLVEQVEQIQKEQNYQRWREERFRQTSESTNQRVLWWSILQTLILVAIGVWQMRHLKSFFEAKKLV
Experimental: CETSAs were performed as previously described (Jafari et al., 2014; Reinhard et al., 2015). In brief, P cells were treated in the presence or absence of BRD-4780 for 1 hr, harvested (trypsinized), washed in PBS, resuspended in PBS (containing protease inhibitors) and distributed in 0.2 ml PCR tubes (100 μl; 600,000 cells). Cells were incubated at their designated temperatures for 3 min, then at 25° C. for 3 min and lysed by the addition of 1% NP-40. Immediately thereafter, samples were snap frozen and thawed using thermal cycler set at 25° C. Samples were spun at 20′000×g for 20 min (4° C.) to remove precipitated protein and the supernatant was analyzed by Western blot to examine the TMED9/Nischarin thermal stability.

[6] = molecular target: T1, TMED9; test: TMED9 abundance (IF) in patient iPSC-derived kidney organoids; type: cell-based; settings: 10 μM, 72 hours
Experimental: as §1

[7] = test system: total MUC1 mRNA; test: MUC1 transcription assay (RT-PCR profiling screen) in P cells; type: cell-based, human; settings: P cells, 24 hours
Experimental: qPCR was performed using a previously described protocol (Bittker, 2012). P cells seeded at 2000 cells/well in 384-well, clear bottom, white wall plates were grown for 24 hr, then treated with profiling compounds transferred by pinning to duplicate plates. JQ1 (250 nM) and DMSO were used for controls as above. After 24 hr, cells were washed and cDNAs were made using ABI Cells-to-Ct kit (Thermo Fisher Scientific®, Waltham, Mass.). MUC1 and HMBS delta Cp values were determined using a Roche LightCycler 480 Instrument and TaqMan probes for MUC1 FAM (4351368 assay ID Hs00159357_m1) and HMBS VIC (4448486-assay ID Hs00609297_m1) (Thermo Fisher Scientific®, Waltham, Mass.), in 5 μL reactions. The fold change effect of the compounds on total MUC1 mRNA was normalized to JQ1 and DMSO controls, as described above.

CC(C)[C@@H]1[C@H]2CC[C@H](C2)[C@H]1N (racemic) [BRD-4780, 2-endo-amino-3-exo-isopropylbicyclo[2.2.1]heptane]
pEC50 [1]: 6.84
anti-hypertensive efficacy in animal studies [2]: lack of efficacy as an anti-hypertensive
MUC1-fs protein in patient kidney organoids [3]: cleared the mutant protein from intracellular compartments in all patient organoids
rescue from THP-induced cell death [4]: rescued P cells from THP-induced cell death
TMED9 thermal stability (CETSA) [5]: shifted the TMED9 heat denaturation curve to significantly higher temperatures; also recorded: Higher abundance of TMED9 was noted at temperatures >47 °C
TMED9 abundance in patient organoids [6]: reduced TMED9 to levels comparable to cells in N1 organoids
effect on MUC1 transcriptional regulation [7]: no effect on MUC1 transcriptional regulation
